What was measured:
[1] = molecular target: T1, Melanin-concentrating hormone receptor 1 (Homo sapiens, UniProt Q99705); assay: Displacement of 125I-[Phe13,Tyr19]-MCH from human MCH-R1
[2] = molecular target: T2, Melanin-concentrating hormone receptor 1 (Rattus norvegicus, UniProt P97639); assay: […] of IP3-coupled mobilization of calcium in HEK293 cells expressing rat MCH-R1; format: functional, cell-based
[3] = molecular target: Melanin-concentrating hormone receptor 2 (Homo sapiens) (UniProt Q969V1); assay: Inhibition of 125I-[Phe13,Tyr19]-MCHbinding to human MCH-R2; conditions: concentration not given here
Chain of Melanin-concentrating hormone receptor 2 (Homo sapiens) (Q969V1 whole entry): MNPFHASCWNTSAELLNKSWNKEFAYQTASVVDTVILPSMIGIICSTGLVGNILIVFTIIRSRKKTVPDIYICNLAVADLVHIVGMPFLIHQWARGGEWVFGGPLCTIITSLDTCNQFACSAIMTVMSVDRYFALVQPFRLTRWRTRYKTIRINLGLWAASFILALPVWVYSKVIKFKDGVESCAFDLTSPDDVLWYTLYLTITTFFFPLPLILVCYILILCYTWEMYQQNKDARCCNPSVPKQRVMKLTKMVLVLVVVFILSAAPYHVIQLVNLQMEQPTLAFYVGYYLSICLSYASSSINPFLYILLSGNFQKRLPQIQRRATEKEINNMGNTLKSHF

[4] = molecular target: T2, Melanin-concentrating hormone receptor 1; assay: Displacement of 125I-[Phe13,Tyr19]-MCH from rat MCH-R1
[5] = Rat Clp; format: ADME, organism-based; conditions: plasma, read-out: Clp
[6] = Volume of distribution in rats; format: ADME, organism-based; conditions: rat, in vivo; read-out: Vdss
[7] = Half-life in rats; format: ADME, organism-based; conditions: rat, in vivo
[8] = species: Rattus norvegicus; assay: Decreased overnight food intake in continuously infused rats on high-fat diet; format: functional
[9] = molecular target: T1, Melanin-concentrating hormone receptor 1; assay: Inhibition of 125I-[Phe13,Tyr19]-MCH binding to human MCH-R1 at 5uM
[10] = molecular target: Melanin-concentrating hormone receptor 1 (Rattus norvegicus) (UniProt P97639); assay: Inhibition of 125I-[Phe13,Tyr19]-MCH binding to rat MCH-R1 at 5uM
Chain of Melanin-concentrating hormone receptor 1 (Rattus norvegicus) (P97639 whole entry): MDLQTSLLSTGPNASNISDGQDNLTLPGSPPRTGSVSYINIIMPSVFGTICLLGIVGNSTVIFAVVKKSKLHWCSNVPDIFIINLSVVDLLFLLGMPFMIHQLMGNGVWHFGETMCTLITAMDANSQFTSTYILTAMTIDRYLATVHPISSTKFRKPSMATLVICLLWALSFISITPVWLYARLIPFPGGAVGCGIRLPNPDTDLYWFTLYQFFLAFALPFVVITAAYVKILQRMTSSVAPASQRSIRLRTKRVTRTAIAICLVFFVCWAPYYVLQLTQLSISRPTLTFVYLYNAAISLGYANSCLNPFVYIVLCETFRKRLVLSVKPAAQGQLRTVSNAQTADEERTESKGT

T2 sequence (P97639 whole entry): as above
T1 sequence (Q99705 whole entry): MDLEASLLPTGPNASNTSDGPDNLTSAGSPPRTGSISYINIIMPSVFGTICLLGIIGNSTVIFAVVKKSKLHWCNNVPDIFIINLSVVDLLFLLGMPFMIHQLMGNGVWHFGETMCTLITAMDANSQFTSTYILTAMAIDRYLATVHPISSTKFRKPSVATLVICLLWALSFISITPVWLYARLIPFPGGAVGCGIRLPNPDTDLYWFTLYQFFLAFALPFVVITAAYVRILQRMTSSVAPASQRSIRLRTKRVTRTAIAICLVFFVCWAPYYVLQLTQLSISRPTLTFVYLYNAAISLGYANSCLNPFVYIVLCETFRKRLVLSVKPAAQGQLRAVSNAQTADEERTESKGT

## CNC(=O)NC1CCN(c2ccc3cc(NC(=O)CCc4ccc(C(F)(F)F)cc4)ccc3n2)C1 (stereo unspecified)
[1]
  IC50: 6 nM
[2]
  EC50: 30 nM

## CS(=O)(=O)NC1CCN(c2ccc3cc(NC(=O)CCc4ccc(C(F)(F)F)cc4)ccc3n2)C1 (stereo unspecified)
[1]
  IC50: 3 nM
[2]
  EC50: 50 nM

## CCCN(C)c1ccc2cc(NC(=O)CCc3ccc(C(F)(F)F)cc3)ccc2n1
[1]
  IC50: 10 nM
[2]
  EC50: 140 nM
[3]
  inhibition: < 50%

## O=C(CCc1ccc(C(F)(F)F)cc1)Nc1ccc2nc(N3CCCCCC3)ccc2c1
[1]
  IC50: 36 nM
[2]
  EC50: 1800 nM
[3]
  inhibition: < 50%

## CC(=O)NC1CCN(c2ccc3cc(NC(=O)CCc4ccc(C(F)(F)F)cc4)ccc3n2)C1 (stereo unspecified)
[1]
  IC50: 5 nM
[2]
  EC50: 440 nM

## CN(c1ccccc1)c1ccc2cc(NC(=O)CCc3ccc(C(F)(F)F)cc3)ccc2n1
[1]
  IC50: 3700 nM
[3]
  inhibition: < 50%

## CNc1ccc2cc(NC(=O)CCc3ccc(C(F)(F)F)cc3)ccc2n1
[1]
  IC50: 20 nM
[2]
  EC50: 330 nM
[3]
  inhibition: < 50%

## CC(C)C(=O)NC1CCN(c2ccc3cc(NC(=O)CCc4ccc(C(F)(F)F)cc4)ccc3n2)C1 (stereo unspecified)
[1]
  IC50: 1 nM
[2]
  EC50: 90 nM

## CC1CCN(c2ccc3cc(NC(=O)CCc4ccc(C(F)(F)F)cc4)ccc3n2)C1 (stereo unspecified)
[1]
  IC50: 2 nM
[2]
  EC50: 400 nM

## O=C(CCc1ccc(C(F)(F)F)cc1)Nc1ccc2nc(N3CC4CC3CN4)ccc2c1 (stereo unspecified)
[1]
  IC50: 210 nM
[2]
  EC50: 490 nM

## CCN(CC)c1ccc2cc(NC(=O)CCc3ccc(C(F)(F)F)cc3)ccc2n1
[1]
  IC50: 88 nM
[2]
  EC50: 830 nM
[3]
  inhibition: < 50%

## CC1CCCN1c1ccc2cc(NC(=O)CCc3ccc(C(F)(F)F)cc3)ccc2n1 (stereo unspecified)
[1]
  IC50: 5 nM
[2]
  EC50: 270 nM

## NC1CCN(c2ccc3cc(NC(=O)CCc4ccc(C(F)(F)F)cc4)ccc3n2)C1 (stereo unspecified)
[1]
  IC50: 12 nM
[2]
  EC50: 200 nM

## O=C(CCc1ccc(C(F)(F)F)cc1)Nc1ccc2nc(N3CCCC3)ccc2c1
[1]
  IC50: 3 nM
[2]
  EC50: 320 nM
[2]; hek293
  EC50: 320 nM
[3]
  inhibition: < 50%

## O=C(CCc1ccc(C(F)(F)F)cc1)Nc1ccc2nc(N3CC4CC3CO4)ccc2c1 (stereo unspecified)
[1]
  IC50: 13 nM
[2]
  EC50: 70 nM

## O=C(CCc1ccc(C(F)(F)F)cc1)Nc1ccc2nc(N3CCC(c4ccccc4)C3)ccc2c1 (stereo unspecified)
[1]
  IC50: 25 nM
[2]
  EC50: 1770 nM

## CN(c1ccc2cc(NC(=O)CCc3ccc(C(F)(F)F)cc3)ccc2n1)C1CCCC1
[1]
  IC50: 2 nM
[2]
  EC50: 350 nM
[3]
  inhibition: < 50%

## O=C(CCc1ccc(C(F)(F)F)cc1)Nc1ccc2nc(N3CCC3)ccc2c1
[1]
  IC50: 4 nM
[2]
  EC50: 56 nM
[3]
  inhibition: < 50%

## O=C(CCc1ccc(C(F)(F)F)cc1)Nc1ccc2nc(N3CC4CCC3CC4)ccc2c1
[1]
  IC50: 3 nM
[2]
  EC50: 190 nM
[3]
  inhibition: < 50%

## O=C(CCCCCCCCCCCCc1ccc(C(F)(F)F)cc1)Nc1ccc2nc([N+]34CCC(CC3)CC4)ccc2c1
[1]
  IC50: 5 nM
[2]
  EC50: 25 nM
[4]
  IC50: 13 nM
[5]
  clearance: 36 mL/min/kg
[6]
  Vd: 1 L/kg
[7]
  half-life: 36 min
[8]
  Reduced food intake: 26%

## CCCN(CCC)c1ccc2cc(NC(=O)CCc3ccc(C(F)(F)F)cc3)ccc2n1
[1]
  IC50: 490 nM
[3]
  inhibition: < 50%

## CN(C)c1ccc2cc(NC(=O)CCc3ccc(C(F)(F)F)cc3)ccc2n1
[1]
  IC50: 13 nM
[2]
  EC50: 110 nM
[3]
  inhibition: < 50%

## O=C(CCc1ccc(C(F)(F)F)cc1)Nc1ccc2nc(N3CC4CCC3C4)ccc2c1 (stereo unspecified)
[1]
  IC50: 1 nM
[2]
  EC50: 150 nM

## CN(c1ccc2cc(NC(=O)CCc3ccc(C(F)(F)F)cc3)ccc2n1)C1CCCCC1
[1]
  IC50: 18 nM
[2]
  EC50: 1200 nM
[3]
  inhibition: < 50%

## COC(=O)C1CCCN1c1ccc2cc(NC(=O)CCc3ccc(C(F)(F)F)cc3)ccc2n1 (stereo unspecified)
[1]
  IC50: 800 nM
[2]
  EC50: 580 nM

## O=C(CCc1ccc(C(F)(F)F)cc1)Nc1ccc2nc(N3CCCCC3)ccc2c1
[1]
  IC50: 12 nM
[2]
  EC50: 110 nM
[3]
  inhibition: < 50%

## CC(C)N(C)c1ccc2cc(NC(=O)CCc3ccc(C(F)(F)F)cc3)ccc2n1
[1]
  IC50: 2 nM
[2]
  EC50: 140 nM
[3]
  inhibition: < 50%

## CCCc1cc(N(C)C)c2cc(NC(=O)CCc3ccc(C(F)(F)F)cc3)ccc2n1
[1]
  IC50: 12 nM

## O=C(Nc1ccc2nc([N+]34CCC(CC3)CC4)ccc2c1)c1ccc(C(F)(F)F)nc1
[2]
  EC50: > 10000 nM
[9]
  inhibition: 30%
[10]
  inhibition: 20%
[5]
  clearance: 57 mL/min/kg
[6]
  Vd: 3.92 L/kg
[7]
  half-life: 66 min

## O=C(CCc1ccc(C(F)(F)F)cc1)Nc1ccc2nc(N3CCC(NC(=O)c4ccccc4)C3)ccc2c1 (stereo unspecified)
[1]
  IC50: 10 nM
[2]
  EC50: 110 nM

## O=C(CCc1ccc(C(F)(F)F)cc1)Nc1ccc2nc(N3CCC4(CCNC4)C3)ccc2c1 (stereo unspecified)
[1]
  IC50: 0.5 nM
[2]
  EC50: 140 nM

## Nc1ccc2cc(NC(=O)CCc3ccc(C(F)(F)F)cc3)ccc2n1
[1]
  IC50: 240 nM
[2]
  EC50: 720 nM
[3]
  inhibition: < 50%
